Results on 26 molecules are retold here after US12024531B2, “Immunoproteasome inhibitors” (Principia Biopharma Inc., priority 2017, dated 2024).

In general, IC50 refers to the point on the concentration scale where inhibition reaches its midpoint.

Common to all, as to format: biochemical
Test [1] deals with immunoproteasome LMP7/B5i subunit (Homo sapiens, UniProt P28062). As to the kind of experiment: Caliper-based proteasome enzymatic activity assay, LMP7. The settings on record: human recombinant immunoproteasome 0.3 nM, FAM peptide substrate 1 μM, rt 3 h.
Test [2] deals with immunoproteasome LMP2 subunit (Homo sapiens, UniProt P28065). In words: Caliper-based proteasome enzymatic activity assay, LMP2. Conditions: human recombinant immunoproteasome 0.3 nM, FAM peptide substrate 1 μM, rt 2 h.
In test [3] the target is constitutive proteasome β5c subunit (Homo sapiens, UniProt P28074). As to the kind of experiment: Caliper-based proteasome enzymatic activity assay, β5c. The settings on record: human recombinant constitutive proteasome 0.3 nM, FAM peptide substrate 1 μM, rt 3 h.

For `CC(C)N(C(=O)C(C#N)=Cc1cccc(CCOC(=O)N[C@@H](Cc2ccccc2)B(O)O)c1)C(C)C` (single isomer, unassigned) [Example 74], the half-maximal inhibitory concentration (IC50) in test [1] is 27.1 nM; in test [2] it was 2750 nM; in test [3] it was greater than 5000 nM.
The matching figures for `CC(C)N(C(=O)C(C#N)=Cc1cccc(CCOC(=O)N[C@@H](Cc2ccccc2)B(O)O)c1)C(C)C` (single isomer, unassigned) [Example 75]: 1.4 nM, 2520 nM and 3020 nM.
In the case of `CC(C)(C)NC(=O)C(C#N)=Cc1cccc(CC[C@H](NC(=O)c2cnccn2)C(=O)N[C@@H](Cc2ccccc2)B(O)O)c1` [Example 1, ((R)-1-((S)-4-(3-(3-(tert-butylamino)-2-cyano-3-oxoprop-1-en-1-yl)phenyl)-2-(pyrazine-2-carboxamido)butanamido)-2-phenylethyl)boronic Acid], the IC50 in test [1] stood at 6 nM; in test [3], 32 nM.
The matching figures for `CC(C)(C)NC(=O)C(C#N)=Cc1cccc(CCC(=O)N[C@@H](Cc2ccccc2)B(O)O)c1` [Example 3, (R)-(1-(3-(3-(3-(tert-butylamino)-2-cyano-3-oxoprop-1-en-1-yl)phenyl)propanamido)-2-phenylethyl)boronic Acid]: 10 nM and 120 nM.
Take `CC(C)(C)NC(=O)C(C#N)=Cc1cccc(CC[C@H](NC(=O)c2cc(Cl)ccc2Cl)C(=O)N[C@@H](Cc2ccccc2)B(O)O)c1` [Example 4, (R)-1-((S)-4-(3-(3-(tert-butylamino)-2-cyano-3-oxoprop-1-enyl)phenyl)-2-(2,5-dichlorobenzamido)butanamido)-2-phenylethylboronic Acid]: the IC50 in test [1] turned out to be 1 nM; in test [2], 16 nM; in test [3] it was 7 nM.
The matching figures for `CN(C)C(=O)C(C#N)=Cc1cccc(OCCC(=O)N[C@@H](Cc2ccccc2)B(O)O)c1` [Example 5, (R)-1-(3-(3-(2-cyano-3-(dimethylamino)-3-oxoprop-1-enyl)phenoxy)propanamido)-2-phenylethylboronic Acid]: 3 nM, 140 nM and 95 nM.
For `CCN(CC)C(=O)C(C#N)=Cc1cccc(OCCC(=O)N[C@@H](Cc2ccccc2)B(O)O)c1` [Example 7, (R)-1-(3-(3-(2-cyano-3-(diethylamino)-3-oxoprop-1-enyl)phenoxy)propanamido)-2-phenylethylboronic Acid], in that order: 5 nM, 500 nM and 60 nM.
As for `CCc1cccc(C[C@H](NC(=O)CCOc2cccc(C=C(C#N)C(=O)NC(C)(C)C)c2)B(O)O)c1` [Example 8, (R)-(1-(3-(3-(3-(tert-butylamino)-2-cyano-3-oxoprop-1-en-1-yl)phenoxy)propanamido)-2-(3-ethylphenyl)ethyl)boronic Acid], the values for the concentration for half-maximal inhibition (IC50) in test [1] and in test [3] were 16 nM and 420 nM, respectively.
Consider `N#CC(=Cc1cccc(OCCC(=O)N[C@@H](Cc2ccccc2)B(O)O)c1)C(=O)N1CCOCC1` [Example 9, (R)-1-(3-(3-(2-cyano-3-morpholino-3-oxoprop-1-enyl)phenoxy)propanamido)-2-phenylethylboronic Acid], for which the concentration for half-maximal inhibition (IC50) in test [1] was 8 nM; in test [2] it was 820 nM; in test [3], 100 nM.
As for `CC(C)NC(=O)C(C#N)=Cc1cccc(OCCC(=O)N[C@@H](Cc2ccccc2)B(O)O)c1` [Example 12, (R)-1-(3-(3-(2-cyano-3-(isopropylamino)-3-oxoprop-1-enyl)phenoxy)propanamido)-2-phenylethylboronic Acid], the figures for the IC50 in test [1] and in test [3] were 4 nM and 100 nM, respectively.
The matching figures for `CC(C)(C)C[C@H](NC(=O)CCOc1cccc(C=C(C#N)C(=O)NC(C)(C)C)c1)B(O)O` [Example 13, (R)-1-(3-(3-(3-(tert-butylamino)-2-cyano-3-oxoprop-1-enyl)phenoxy)propanamido)-3,3-dimethylbutylboronic Acid]: 149 nM and 3930 nM.
The matching figures for `CC(C)(C)NC(=O)C(C#N)=Cc1ccc(F)c(OCCC(=O)N[C@@H](Cc2ccccc2)B(O)O)c1` [Example 18, (R)-(1-(3-(5-(3-(tert-butylamino)-2-cyano-3-oxoprop-1-en-1-yl)-2-fluorophenoxy)propanamido)-2-phenylethyl)boronic Acid]: 15 nM and 85 nM.
The matching figures for `CCN(C(=O)C(C#N)=Cc1cccc(CCOC(=O)N[C@@H](Cc2coc3ccccc23)B(O)O)c1)C1CCOCC1` [Example 95, (R)-(2-(benzofuran-3-yl)-1-(((3-(2-cyano-3-(ethyl(tetrahydro-2H-pyran-4-yl)amino)-3-oxoprop-1-en-1-yl)phenethoxy)carbonyl)amino)ethyl)boronic Acid]: 1.2 nM and 87 nM.
For `CCN(CC)C(=O)C(C#N)=Cc1cccc(CCNC(=O)N[C@@H](Cc2coc3ccccc23)B(O)O)c1` [Example 96, (R)-(2-(benzofuran-3-yl)-1-(3-(3-(2-cyano-3-(diethylamino)-3-oxoprop-1-en-1-yl)phenethyl)ureido)ethyl)boronic Acid], the half-inhibitory concentration (IC50) in test [1] worked out at 2.1 nM; in test [3], 328 nM.
Regarding `CCN(CC)C(=O)C(C#N)=Cc1cc(C#N)cc(CCOC(=O)N[C@@H](Cc2coc3ccccc23)B(O)O)c1` [Example 97, (R)-(2-(benzofuran-3-yl)-1-(((3-cyano-5-(2-cyano-3-(diethylamino)-3-oxoprop-1-en-1-yl)phenethoxy)carbonyl)amino)ethyl)boronic Acid], the 50% inhibitory concentration (IC50) was found to be 0.7 nM in test [1] and 43 nM in test [3].
On to `C[C@@H]1COC[C@@H](C)N1C(=O)C(C#N)=Cc1cccc(CCOC(=O)N[C@@H](Cc2coc3ccccc23)B(O)O)c1` [Example 98, ((R)-2-(benzofuran-3-yl)-1-(((3-(2-cyano-3-((3R,5R)-3,5-dimethylmorpholino)-3-oxoprop-1-en-1-yl)phenethoxy)carbonyl)amino)ethyl)boronic Acid], for which the 50% inhibitory concentration (IC50) in test [1] came to 0.5 nM; in test [3], 71 nM.
For `N#CC(=Cc1cccc(CCOC(=O)N[C@@H](Cc2ccccc2)B(O)O)c1)n1cncn1` [Example 99, (R)-(1-(((3-(2-cyano-2-(1H-1,2,4-triazol-1-yl)vinyl)phenethoxy)carbonyl)amino)-2-phenylethyl)boronic Acid], in that order: 1.5 nM and 1740 nM.
Take `CCN(C(=O)C(C#N)=Cc1cccc(CCNC(=O)N[C@@H](Cc2coc3ccccc23)B(O)O)c1)C1CCOCC1` [Example 100, (R)-(2-(benzofuran-3-yl)-1-(3-(3-(2-cyano-3-(ethyl(tetrahydro-2H-pyran-4-yl)amino)-3-oxoprop-1-en-1-yl)phenethyl)ureido)ethyl)boronic Acid]: the IC50 in test [1] was determined as 5.2 nM; in test [3] it was 1430 nM.
In the case of `CCN(C(=O)C(C#N)=Cc1cc(C#N)cc(CCOC(=O)N[C@@H](Cc2ccccc2)B(O)O)c1)C1CCOCC1` [Example 102, (R)-(1-(((3-cyano-5-(2-cyano-3-(ethyl(tetrahydro-2H-pyran-4-yl)amino)-3-oxoprop-1-en-1-yl)phenethoxy)carbonyl)amino)-2-phenylethyl)boronic Acid], the figures for the concentration for half-maximal inhibition (IC50) in test [1] and in test [3] were 2.2 nM and 1550 nM, respectively.
Regarding `CCN(C(=O)C(C#N)=Cc1cc(C#N)cc(CCOC(=O)N[C@@H](Cc2ccc(C)cc2)B(O)O)c1)C1CCOCC1` [Example 103, (R)-(1-(((3-cyano-5-(2-cyano-3-(ethyl(tetrahydro-2H-pyran-4-yl)amino)-3-oxoprop-1-en-1-yl)phenethoxy)carbonyl)amino)-2-(p-tolyl)ethyl)boronic Acid], the half-maximal inhibitory concentration (IC50) was 1.4 nM in test [1] and 460 nM in test [3].
The matching figures for `CCN(CC)C(=O)C(C#N)=Cc1cc(C#N)cc(CCOC(=O)N[C@@H](Cc2ccccc2)B(O)O)c1` [Example 104, (R)-(1-(((3-cyano-5-(2-cyano-3-(diethylamino)-3-oxoprop-1-en-1-yl)phenethoxy)carbonyl)amino)-2-phenylethyl)boronic Acid]: 3.3 nM and 2870 nM.
Turning to `CCN(C(=O)C(C#N)=Cc1ccc2c(c1)CN(CC(=O)N[C@@H](Cc1coc3ccccc13)B(O)O)CC2)C1CCOCC1` [Example 105, (R)-(2-(benzofuran-3-yl)-1-(2-(7-(2-cyano-3-(ethyl(tetrahydro-2H-pyran-4-yl)amino)-3-oxoprop-1-en-1-yl)-3,4-dihydroisoquinolin-2(1H)-yl)acetamido)ethyl)boronic Acid], the IC50 in test [1] stood at 1.6 nM; in test [3], 21 nM.
As for `N#CC(=Cc1cccc(CCOC(=O)N[C@@H](CCc2ccccc2)B(O)O)c1)n1cncn1` [Example 106, (R)-(1-(((3-(2-cyano-2-(1H-1,2,4-triazol-1-yl)vinyl)phenethoxy)carbonyl)amino)-3-phenylpropyl)boronic Acid], the figures for the IC50 in test [1] and in test [3] were 4.8 nM and greater than 5000 nM, respectively.
For `Cc1ccc(C[C@H](NC(=O)NCCc2cccc(C=C(C#N)n3cncn3)c2)B(O)O)cc1` [Example 107, (R)-(1-(3-(3-(2-cyano-2-(1H-1,2,4-triazol-1-yl)vinyl)phenethyl)ureido)-2-(p-tolyl)ethyl)boronic Acid], in that order: 23 nM and greater than 5000 nM.
The matching figures for `CCN(CC)C(=O)C(C#N)=Cc1ccc2c(c1)CN(CC(=O)N[C@@H](Cc1ccc(C)cc1)B(O)O)CC2` [Example 108, (R)-(1-(2-(7-(2-cyano-3-(diethylamino)-3-oxoprop-1-en-1-yl)-3,4-dihydroisoquinolin-2(1H)-yl)acetamido)-2-(p-tolyl)ethyl)boronic Acid]: 35 nM and greater than 5000 nM.
Regarding `CCN(CC)C(=O)C(C#N)=Cc1ccc2c(c1)CN(CC(=O)N[C@@H](Cc1ccccc1)B(O)O)CC2` [Example 109, (R)-(1-(2-(7-(2-cyano-3-(diethylamino)-3-oxoprop-1-en-1-yl)-3,4-dihydroisoquinolin-2(1H)-yl)acetamido)-2-phenylethyl)boronic Acid], the concentration for half-maximal inhibition (IC50) in test [1] was 7.5 nM; in test [3], 77 nM.
